Earlier results as cited in patent US20230233522A1, “COMPOSITIONS AND METHODS FOR TREATING EPILEPSY, SEIZURES AND OTHER CONDITIONS” (TULEX PHARMACEUTICALS INC., priority 2019, published 2023).

- solubility in water: about 9.8 mg/ml
SMILES: CC1(C)O[C@@H]2[C@@H](CO[C@@]3(COS(N)(=O)=O)OC(C)(C)O[C@@H]23)O1 [Topiramate, 2,3:4,5-Di-O-isopropylidine-β-D-fructopyranose sulfamate]
